Assay results reported in the NIST ThermoML archive (doi:10.1021/je1003065).

Assay: mn = molality of the nth substance listed, in mol/kg
Details: Liquid, Vibrating tube method

[Br-].[Li+] [lithium bromide] + CCO
Details | mass density [kg/m3]
298.15 K, 60024 kPa, m1 = 0.9499 | 885.07
298.15 K, 69784 kPa, m1 = 0.2335 | 847.83
298.15 K, 69784 kPa, m1 = 0.9499 | 890.31
298.15 K, 69931 kPa, m1 = 0.5972 | 869.87
298.15 K, 69993 kPa, m1 = 1.462 | 920.05
298.15 K, 79215 kPa, m1 = 0.9499 | 895.14
298.15 K, 79970 kPa, m1 = 2.272 | 969.11
298.15 K, 80014 kPa, m1 = 2.833 | 998.77
298.15 K, 80151 kPa, m1 = 0.5972 | 875.11
298.15 K, 89921 kPa, m1 = 0.2335 | 857.88
298.15 K, 89926 kPa, m1 = 0.9499 | 900.43
298.15 K, 89927 kPa, m1 = 2.833 | 1003.47
298.15 K, 89963 kPa, m1 = 0.5972 | 879.79
298.15 K, 99468 kPa, m1 = 0.2335 | 862.11
298.15 K, 99739 kPa, m1 = 1.462 | 933.99
298.15 K, 99874 kPa, m1 = 0.5972 | 884.17
298.15 K, 99968 kPa, m1 = 2.833 | 1008.08
298.15 K, 99975 kPa, m1 = 0.9499 | 905.24
298.16 K, 1341 kPa, m1 = 1.462 | 876.32
298.16 K, 9986 kPa, m1 = 2.833 | 958.39
298.16 K, 20192 kPa, m1 = 0.5972 | 838.95
298.16 K, 39784 kPa, m1 = 0.2335 | 830.01
298.16 K, 49924 kPa, m1 = 2.833 | 983.25
298.16 K, 89994 kPa, m1 = 1.462 | 929.76
298.17 K, 9947 kPa, m1 = 1.462 | 882.69
298.17 K, 59942 kPa, m1 = 0.2335 | 842.36
298.17 K, 69994 kPa, m1 = 3.368 | 1020.58
298.17 K, 80053 kPa, m1 = 1.462 | 925.1
298.18 K, 2703 kPa, m1 = 3.368 | 980.82
298.18 K, 5041 kPa, m1 = 3.368 | 982.47
298.18 K, 5165 kPa, m1 = 2.272 | 925.09
298.18 K, 9642 kPa, m1 = 2.272 | 928.25
298.18 K, 9735 kPa, m1 = 3.368 | 985.72
298.18 K, 9947 kPa, m1 = 0.5972 | 831.46
298.18 K, 19511 kPa, m1 = 3.368 | 992.17
298.18 K, 29936 kPa, m1 = 3.368 | 998.66
298.18 K, 40157 kPa, m1 = 3.368 | 1004.65
298.18 K, 49943 kPa, m1 = 3.368 | 1010.11
298.19 K, 2166 kPa, m1 = 2.272 | 922.88
298.19 K, 20358 kPa, m1 = 1.462 | 890.05
298.2 K, 20184 kPa, m1 = 2.272 | 935.31
298.2 K, 59916 kPa, m1 = 3.368 | 1015.42
313.09 K, 4759 kPa, m1 = 0.5972 | 815.39
313.11 K, 1319 kPa, m1 = 2.272 | 910.08
313.11 K, 2109 kPa, m1 = 1.462 | 864.85
313.11 K, 4863 kPa, m1 = 2.272 | 912.94
313.11 K, 9792 kPa, m1 = 0.5972 | 819.49
313.13 K, 5147 kPa, m1 = 1.462 | 867.25
313.13 K, 19554 kPa, m1 = 0.5972 | 827.15
313.14 K, 5102 kPa, m1 = 2.833 | 943.28
313.14 K, 9982 kPa, m1 = 2.272 | 916.81
313.14 K, 19956 kPa, m1 = 0.2335 | 804.92
313.14 K, 20135 kPa, m1 = 2.272 | 924.35
313.14 K, 29993 kPa, m1 = 2.272 | 931.18
313.14 K, 40450 kPa, m1 = 2.272 | 937.95
313.14 K, 50014 kPa, m1 = 0.2335 | 826.45
313.14 K, 59926 kPa, m1 = 2.833 | 978.99
313.15 K, 1021 kPa, m1 = 2.833 | 940.06
313.15 K, 1045 kPa, m1 = 0.9499 | 833.87
313.15 K, 2012 kPa, m1 = 0.2335 | 789.9
313.15 K, 5003 kPa, m1 = 0.9499 | 837.08
313.15 K, 5028 kPa, m1 = 0.2335 | 792.77
313.15 K, 9909 kPa, m1 = 1.462 | 870.96
313.15 K, 9978 kPa, m1 = 2.833 | 947
313.15 K, 9985 kPa, m1 = 0.9499 | 841.04
313.15 K, 19924 kPa, m1 = 0.9499 | 848.66
313.15 K, 19994 kPa, m1 = 1.462 | 878.53
313.15 K, 29451 kPa, m1 = 2.833 | 960.7
313.15 K, 29924 kPa, m1 = 0.2335 | 812.49
313.15 K, 29935 kPa, m1 = 0.9499 | 855.96
313.15 K, 29958 kPa, m1 = 0.5972 | 834.89
313.15 K, 29979 kPa, m1 = 1.462 | 885.66
313.15 K, 39844 kPa, m1 = 0.5972 | 841.83
313.15 K, 40021 kPa, m1 = 0.9499 | 862.92
313.15 K, 49925 kPa, m1 = 1.462 | 898.82
313.15 K, 49925 kPa, m1 = 2.272 | 943.67
313.15 K, 49963 kPa, m1 = 0.5972 | 848.54
313.15 K, 49968 kPa, m1 = 2.833 | 973.38
313.15 K, 50035 kPa, m1 = 0.9499 | 869.45
313.15 K, 59623 kPa, m1 = 1.462 | 904.69
313.15 K, 59831 kPa, m1 = 0.5972 | 854.67
313.15 K, 60002 kPa, m1 = 0.2335 | 832.74
313.15 K, 60047 kPa, m1 = 0.9499 | 875.6
313.15 K, 69784 kPa, m1 = 0.9499 | 881.21
313.15 K, 69784 kPa, m1 = 2.833 | 984.26
313.15 K, 69928 kPa, m1 = 1.462 | 910.56
313.15 K, 69997 kPa, m1 = 0.5972 | 860.59
313.15 K, 79828 kPa, m1 = 0.5972 | 865.9
313.15 K, 79877 kPa, m1 = 1.462 | 915.87
313.15 K, 79935 kPa, m1 = 0.9499 | 886.68
313.15 K, 80042 kPa, m1 = 0.2335 | 844.05
313.15 K, 89924 kPa, m1 = 0.2335 | 848.99
313.15 K, 89925 kPa, m1 = 2.833 | 994.32
313.15 K, 89926 kPa, m1 = 1.462 | 920.86
313.15 K, 89986 kPa, m1 = 0.9499 | 891.71
313.15 K, 89993 kPa, m1 = 0.5972 | 870.99
313.15 K, 99841 kPa, m1 = 0.5972 | 875.52
313.15 K, 99954 kPa, m1 = 0.9499 | 896.31
313.15 K, 99985 kPa, m1 = 0.2335 | 853.58
313.15 K, 99985 kPa, m1 = 2.833 | 999.09
313.16 K, 10023 kPa, m1 = 0.2335 | 796.94
313.16 K, 19926 kPa, m1 = 2.833 | 954.23
313.16 K, 39715 kPa, m1 = 1.462 | 892.26
313.16 K, 40032 kPa, m1 = 0.2335 | 819.73
313.16 K, 59995 kPa, m1 = 2.272 | 949.4
